# Measured values as given in paper PMC9681820, “A PDE10A inhibitor CPL500036 is a novel agent modulating striatal function devoid of most neuroleptic side-effects” (Frontiers in Pharmacology, 2022).
# What was measured:
# pKa (Figure 1) = assay type: physicochemical; settings: printed in the picture of Figure 1, no method given
# [1] = biological target: T1, potassium voltage-gated channel subfamily H member 2 (hERG) (Homo sapiens, UniProt Q12809); assay: SafetyScreen44 radioligand binding; settings: read-out: % Inh (% inhibition of control specific binding)
# T1 construct: purchased Eurofins Cerep (SafetyScreen44)
# Protocol: (§1) The SafetyScreen44® assay was carried out by Eurofins (Poitiers, France) according to the service-provider’s protocol. CPL500036 (1 µM) was tested against a panel of […] potential off-targets proteins, including G protein-coupled receptors (GPCRs), transporters, ion channels, nuclear receptors kinases and other non-kinase enzymes, by use of a set of the binding assays.
# (§2) Binding of CPL500036 was calculated as the percent binding inhibition of a radioactively labeled ligand specific for each target. Enzyme inhibition of CPL500036 was calculated as the percent inhibition of the activity of the control enzyme. “No interaction” was denoted if inhibition ≤ 25% of specific binding of the control. Determination of muscarinic acetylcholine receptor (M2) activity induced by CPL500036 (antagonism and agonism) was undertaken in human recombinant CHO cells by measurement of the intracellular cAMP level according to the service-provider’s protocol. IC50 (concentration causing a half-maximal inhibition of specific binding of the control) or EC50 (concentration causing a half-maximal response of specific binding of the control) and the Hill coefficient were determined by non-linear regression analysis of the competition curves generated with mean replicate values using Hill-equation curve fitting with software developed at Cerep (Celle-Lévescault, France).
# [2] = biological target: T2, muscarinic acetylcholine receptor type 3 (Homo sapiens, UniProt P20309); assay: SafetyScreen44 radioligand binding; settings: read-out: % Inh (% inhibition of control specific binding)
# T2 construct: purchased Eurofins Cerep (SafetyScreen44)
# Protocol: as §1, §2
# dopamine receptor type 2 = biological target: T3, dopamine receptor type 2 (Homo sapiens, UniProt P14416); assay: SafetyScreen44 radioligand binding; settings: agonist radioligand, read-out: % Inh (% inhibition of control specific binding)
# T3 construct: purchased Eurofins Cerep (SafetyScreen44)
# Protocol: as §1, §2
# Endothelin receptor = biological target: T4, Endothelin receptor (Homo sapiens, UniProt P25101); assay: SafetyScreen44 radioligand binding; settings: agonist radioligand, read-out: % Inh (% inhibition of control specific binding)
# T4 construct: purchased Eurofins Cerep (SafetyScreen44)
# Protocol: as §1, §2
# adenosine A2A receptor = biological target: T5, adenosine A2A receptor (Homo sapiens, UniProt P29274); assay: SafetyScreen44 radioligand binding; settings: agonist radioligand, read-out: % Inh (% inhibition of control specific binding)
# T5 construct: purchased Eurofins Cerep (SafetyScreen44)
# T5 sequence (P29274 whole entry): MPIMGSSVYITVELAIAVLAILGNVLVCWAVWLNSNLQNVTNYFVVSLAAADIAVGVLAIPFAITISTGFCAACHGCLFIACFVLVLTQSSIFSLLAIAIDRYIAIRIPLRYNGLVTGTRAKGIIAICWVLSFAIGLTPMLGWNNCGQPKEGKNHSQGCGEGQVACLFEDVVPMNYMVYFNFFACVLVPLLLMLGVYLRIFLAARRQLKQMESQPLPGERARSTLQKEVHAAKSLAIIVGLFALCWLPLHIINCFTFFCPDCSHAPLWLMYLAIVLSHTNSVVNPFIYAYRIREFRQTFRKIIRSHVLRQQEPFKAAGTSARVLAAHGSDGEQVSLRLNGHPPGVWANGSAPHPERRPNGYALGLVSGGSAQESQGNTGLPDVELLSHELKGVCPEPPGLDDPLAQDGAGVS
# Protocol: as §1, §2
# Monoamine oxidase A = biological target: T6, Monoamine oxidase A (Rattus norvegicus, UniProt P21396); assay: SafetyScreen44 radioligand binding; settings: read-out: % Inh (% inhibition of control specific binding)
# T6 construct: purchased Eurofins Cerep (SafetyScreen44)
# T6 sequence (P21396 whole entry): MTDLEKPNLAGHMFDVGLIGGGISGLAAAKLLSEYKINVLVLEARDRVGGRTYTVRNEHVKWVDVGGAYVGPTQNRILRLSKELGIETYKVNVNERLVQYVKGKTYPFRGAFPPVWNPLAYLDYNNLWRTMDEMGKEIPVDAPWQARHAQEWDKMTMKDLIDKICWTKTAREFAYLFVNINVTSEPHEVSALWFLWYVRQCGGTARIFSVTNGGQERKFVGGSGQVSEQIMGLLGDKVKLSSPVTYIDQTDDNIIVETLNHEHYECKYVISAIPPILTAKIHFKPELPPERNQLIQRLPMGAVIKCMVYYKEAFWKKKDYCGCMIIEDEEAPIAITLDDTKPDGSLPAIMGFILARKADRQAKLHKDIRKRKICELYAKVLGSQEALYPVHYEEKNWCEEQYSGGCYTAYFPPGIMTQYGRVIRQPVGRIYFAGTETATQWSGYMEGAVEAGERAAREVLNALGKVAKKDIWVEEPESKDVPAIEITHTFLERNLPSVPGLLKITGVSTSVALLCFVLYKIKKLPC
# Protocol: as §1, §2
# [3] = biological target: T7, alpha-2A adrenergic receptor (Homo sapiens, UniProt P08913); assay: SafetyScreen44 radioligand binding; settings: read-out: % Inh (% inhibition of control specific binding)
# T7 construct: purchased Eurofins Cerep (SafetyScreen44)
# T7 sequence (P08913 whole entry): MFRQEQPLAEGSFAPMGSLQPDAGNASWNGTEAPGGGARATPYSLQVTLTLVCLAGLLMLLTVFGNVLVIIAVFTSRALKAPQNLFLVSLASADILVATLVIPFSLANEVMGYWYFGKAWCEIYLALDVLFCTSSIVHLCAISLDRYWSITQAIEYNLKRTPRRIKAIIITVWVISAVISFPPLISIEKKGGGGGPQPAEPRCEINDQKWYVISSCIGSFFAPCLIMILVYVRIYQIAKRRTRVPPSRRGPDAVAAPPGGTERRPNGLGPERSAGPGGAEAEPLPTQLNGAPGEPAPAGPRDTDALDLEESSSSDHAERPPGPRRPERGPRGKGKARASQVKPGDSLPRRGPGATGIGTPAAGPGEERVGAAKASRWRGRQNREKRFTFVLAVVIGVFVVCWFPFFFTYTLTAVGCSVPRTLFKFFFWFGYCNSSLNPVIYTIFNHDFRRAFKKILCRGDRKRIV
# Protocol: as §1, §2
# androgen receptor = biological target: T8, androgen receptor (Homo sapiens, UniProt P10275, T878A); assay: SafetyScreen44 radioligand binding; settings: agonist radioligand, read-out: % Inh (% inhibition of control specific binding)
# T8 construct: purchased Eurofins Cerep (SafetyScreen44)
# T8 sequence (P10275 whole entry T878A): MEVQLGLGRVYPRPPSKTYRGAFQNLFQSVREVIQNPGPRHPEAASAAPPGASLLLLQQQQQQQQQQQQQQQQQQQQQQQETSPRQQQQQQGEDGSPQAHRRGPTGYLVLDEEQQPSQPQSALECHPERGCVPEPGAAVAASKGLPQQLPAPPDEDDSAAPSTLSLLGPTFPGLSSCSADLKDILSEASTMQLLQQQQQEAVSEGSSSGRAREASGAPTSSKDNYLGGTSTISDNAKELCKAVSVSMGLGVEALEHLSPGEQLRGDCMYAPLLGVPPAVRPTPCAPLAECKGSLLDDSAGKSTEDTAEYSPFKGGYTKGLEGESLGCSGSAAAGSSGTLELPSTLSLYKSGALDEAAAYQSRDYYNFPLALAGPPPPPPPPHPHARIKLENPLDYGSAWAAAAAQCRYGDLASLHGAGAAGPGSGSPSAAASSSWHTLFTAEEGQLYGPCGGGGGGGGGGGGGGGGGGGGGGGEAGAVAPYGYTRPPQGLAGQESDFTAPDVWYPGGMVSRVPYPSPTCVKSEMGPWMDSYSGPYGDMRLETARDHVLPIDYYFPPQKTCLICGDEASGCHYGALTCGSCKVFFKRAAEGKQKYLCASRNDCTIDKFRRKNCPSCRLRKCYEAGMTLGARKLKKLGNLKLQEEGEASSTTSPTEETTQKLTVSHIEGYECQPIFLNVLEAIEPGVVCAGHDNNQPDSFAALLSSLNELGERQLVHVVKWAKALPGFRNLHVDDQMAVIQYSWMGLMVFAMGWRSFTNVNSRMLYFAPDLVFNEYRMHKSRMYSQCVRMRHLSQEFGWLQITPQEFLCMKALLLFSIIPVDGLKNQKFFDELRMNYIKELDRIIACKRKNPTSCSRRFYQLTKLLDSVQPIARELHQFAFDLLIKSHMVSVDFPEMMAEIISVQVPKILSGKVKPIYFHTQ
# Protocol: as §1, §2
# dopamine transporter = biological target: T9, dopamine transporter (Homo sapiens, UniProt Q01959); assay: SafetyScreen44 radioligand binding; settings: read-out: % Inh (% inhibition of control specific binding)
# T9 construct: purchased Eurofins Cerep (SafetyScreen44)
# Protocol: as §1, §2
# serotonin receptor 1A = biological target: T10, serotonin receptor 1A (Homo sapiens, UniProt P08908); assay: SafetyScreen44 radioligand binding; settings: agonist radioligand, read-out: % Inh (% inhibition of control specific binding)
# T10 construct: purchased Eurofins Cerep (SafetyScreen44)
# Protocol: as §1, §2
# serotonin receptor 2A = biological target: T11, serotonin receptor 2A (Homo sapiens, UniProt P28223); assay: SafetyScreen44 radioligand binding; settings: agonist radioligand, read-out: % Inh (% inhibition of control specific binding)
# T11 construct: purchased Eurofins Cerep (SafetyScreen44)
# Protocol: as §1, §2
# 5-HT transporter = biological target: T12, 5-HT transporter (Homo sapiens, UniProt P31645); assay: SafetyScreen44 radioligand binding; settings: read-out: % Inh (% inhibition of control specific binding)
# T12 construct: purchased Eurofins Cerep (SafetyScreen44)
# Protocol: as §1, §2
# [4] = biological target: T13, cannabinoid receptor type 2 (Homo sapiens, UniProt P34972); assay: SafetyScreen44 radioligand binding; settings: agonist radioligand, read-out: % Inh (% inhibition of control specific binding)
# T13 construct: purchased Eurofins Cerep (SafetyScreen44)
# Protocol: as §1, §2
# serotonin receptor 1B = biological target: T14, serotonin receptor 1B (Rattus norvegicus, UniProt P28564); assay: SafetyScreen44 radioligand binding; settings: read-out: % Inh (% inhibition of control specific binding)
# T14 construct: purchased Eurofins Cerep (SafetyScreen44)
# T14 sequence (P28564 whole entry): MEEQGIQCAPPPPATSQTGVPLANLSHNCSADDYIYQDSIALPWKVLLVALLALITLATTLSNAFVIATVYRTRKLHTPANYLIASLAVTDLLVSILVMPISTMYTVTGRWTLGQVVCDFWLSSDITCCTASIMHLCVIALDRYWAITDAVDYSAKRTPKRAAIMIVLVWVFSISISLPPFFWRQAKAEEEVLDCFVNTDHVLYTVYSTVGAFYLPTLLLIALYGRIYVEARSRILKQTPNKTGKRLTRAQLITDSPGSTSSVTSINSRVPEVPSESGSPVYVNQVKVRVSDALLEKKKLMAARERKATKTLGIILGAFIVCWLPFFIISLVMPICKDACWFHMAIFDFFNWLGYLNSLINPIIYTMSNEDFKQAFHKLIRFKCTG
# Protocol: as §1, §2
# serotonin receptor 2B = biological target: T15, serotonin receptor 2B (Homo sapiens, UniProt P41595); assay: SafetyScreen44 radioligand binding; settings: agonist radioligand, read-out: % Inh (% inhibition of control specific binding)
# T15 construct: purchased Eurofins Cerep (SafetyScreen44)
# Protocol: as §1, §2
# [5] = biological target: T16, histamine receptor type 1 (Homo sapiens, UniProt P35367); assay: SafetyScreen44 radioligand binding; settings: read-out: % Inh (% inhibition of control specific binding)
# T16 construct: purchased Eurofins Cerep (SafetyScreen44)
# Protocol: as §1, §2
# [6] = biological target: T17, cannabinoid receptor type 1 (Homo sapiens, UniProt P21554); assay: SafetyScreen44 radioligand binding; settings: agonist radioligand, read-out: % Inh (% inhibition of control specific binding)
# T17 construct: purchased Eurofins Cerep (SafetyScreen44)
# Protocol: as §1, §2
# [7] = biological target: T18, muscarinic acetylcholine receptor type 1 (Homo sapiens, UniProt P11229); assay: SafetyScreen44 radioligand binding; settings: read-out: % Inh (% inhibition of control specific binding)
# T18 construct: purchased Eurofins Cerep (SafetyScreen44)
# Protocol: as §1, §2
# κ-type opioid receptor = biological target: T19, κ-type opioid receptor (Rattus norvegicus, UniProt P34975); assay: SafetyScreen44 radioligand binding; settings: agonist radioligand, read-out: % Inh (% inhibition of control specific binding)
# T19 construct: purchased Eurofins Cerep (SafetyScreen44)
# Protocol: as §1, §2
# dopamine receptor type 1 = biological target: T20, dopamine receptor type 1 (Homo sapiens, UniProt P21728); assay: SafetyScreen44 radioligand binding; settings: read-out: % Inh (% inhibition of control specific binding)
# T20 construct: purchased Eurofins Cerep (SafetyScreen44)
# T20 sequence (P21728 whole entry): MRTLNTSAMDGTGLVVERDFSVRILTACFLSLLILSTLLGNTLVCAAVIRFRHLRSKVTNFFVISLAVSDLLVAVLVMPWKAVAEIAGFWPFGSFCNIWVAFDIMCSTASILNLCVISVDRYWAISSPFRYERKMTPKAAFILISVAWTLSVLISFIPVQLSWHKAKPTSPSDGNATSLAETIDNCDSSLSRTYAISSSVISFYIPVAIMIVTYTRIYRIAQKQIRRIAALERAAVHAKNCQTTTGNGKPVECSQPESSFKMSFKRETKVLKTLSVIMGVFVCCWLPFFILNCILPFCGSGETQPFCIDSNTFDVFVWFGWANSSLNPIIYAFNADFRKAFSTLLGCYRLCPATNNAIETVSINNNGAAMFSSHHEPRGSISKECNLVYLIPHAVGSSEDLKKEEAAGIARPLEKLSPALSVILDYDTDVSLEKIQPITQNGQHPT
# Protocol: as §1, §2
# [8] = biological target: T21, histamine receptor type 2 (Homo sapiens, UniProt P25021); assay: SafetyScreen44 radioligand binding; settings: read-out: % Inh (% inhibition of control specific binding)
# T21 construct: purchased Eurofins Cerep (SafetyScreen44)
# Protocol: as §1, §2
# [9] = biological target: T22, beta-1 adrenergic receptor (Homo sapiens, UniProt P08588); assay: SafetyScreen44 radioligand binding; settings: agonist radioligand, read-out: % Inh (% inhibition of control specific binding)
# T22 construct: purchased Eurofins Cerep (SafetyScreen44)
# Protocol: as §1, §2
# µ -type opioid receptor = biological target: T23, µ -type opioid receptor (Homo sapiens, UniProt P35372); assay: SafetyScreen44 radioligand binding; settings: agonist radioligand, read-out: % Inh (% inhibition of control specific binding)
# T23 construct: purchased Eurofins Cerep (SafetyScreen44)
# T23 sequence (P35372 whole entry): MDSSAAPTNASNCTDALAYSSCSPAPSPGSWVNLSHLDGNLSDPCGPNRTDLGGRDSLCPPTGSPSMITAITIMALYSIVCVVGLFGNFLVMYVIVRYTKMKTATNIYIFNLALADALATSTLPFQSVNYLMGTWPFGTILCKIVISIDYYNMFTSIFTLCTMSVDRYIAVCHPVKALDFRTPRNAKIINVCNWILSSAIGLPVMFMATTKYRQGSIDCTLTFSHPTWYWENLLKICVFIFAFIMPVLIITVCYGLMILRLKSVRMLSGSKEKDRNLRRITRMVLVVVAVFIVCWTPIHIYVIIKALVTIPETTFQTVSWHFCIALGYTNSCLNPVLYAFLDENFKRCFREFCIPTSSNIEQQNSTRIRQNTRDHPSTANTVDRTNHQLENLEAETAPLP
# Protocol: as §1, §2
# [10] = biological target: T24, beta-2 adrenergic receptor (Homo sapiens, UniProt P07550); assay: SafetyScreen44 radioligand binding; settings: agonist radioligand, read-out: % Inh (% inhibition of control specific binding)
# T24 construct: purchased Eurofins Cerep (SafetyScreen44)
# Protocol: as §1, §2
# serotonin receptor 3 = biological target: T25, serotonin receptor 3 (Homo sapiens, UniProt P46098); assay: SafetyScreen44 radioligand binding; settings: read-out: % Inh (% inhibition of control specific binding)
# T25 construct: purchased Eurofins Cerep (SafetyScreen44)
# T25 sequence (P46098 24-478): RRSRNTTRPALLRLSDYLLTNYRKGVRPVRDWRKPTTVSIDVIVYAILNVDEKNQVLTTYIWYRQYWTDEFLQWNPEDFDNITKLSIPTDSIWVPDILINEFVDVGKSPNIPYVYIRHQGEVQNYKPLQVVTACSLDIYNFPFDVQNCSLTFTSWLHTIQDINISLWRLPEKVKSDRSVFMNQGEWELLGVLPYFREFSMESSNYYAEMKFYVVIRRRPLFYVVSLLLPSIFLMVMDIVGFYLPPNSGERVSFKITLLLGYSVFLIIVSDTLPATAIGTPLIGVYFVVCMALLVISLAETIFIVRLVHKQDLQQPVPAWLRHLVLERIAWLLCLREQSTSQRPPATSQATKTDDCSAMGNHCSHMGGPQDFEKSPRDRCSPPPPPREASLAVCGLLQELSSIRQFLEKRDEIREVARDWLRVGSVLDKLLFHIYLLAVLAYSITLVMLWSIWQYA
# Protocol: as §1, §2
# [11] = biological target: T26, cholecystokinin A receptor (Homo sapiens, UniProt P32238); assay: SafetyScreen44 radioligand binding; settings: agonist radioligand, read-out: % Inh (% inhibition of control specific binding)
# T26 construct: purchased Eurofins Cerep (SafetyScreen44)
# Protocol: as §1, §2
# [12] = biological target: T27, δ-type opioid receptor ẟ2 (Homo sapiens, UniProt P41143); assay: SafetyScreen44 radioligand binding; settings: agonist radioligand, read-out: % Inh (% inhibition of control specific binding)
# T27 construct: purchased Eurofins Cerep (SafetyScreen44)
# Protocol: as §1, §2
# [13] = biological target: T28, norepinephrine transporter (Homo sapiens, UniProt P23975); assay: SafetyScreen44 radioligand binding; settings: read-out: % Inh (% inhibition of control specific binding)
# T28 construct: purchased Eurofins Cerep (SafetyScreen44)
# Protocol: as §1, §2
# vasopressin receptor = biological target: T29, vasopressin receptor (Homo sapiens, UniProt P37288); assay: SafetyScreen44 radioligand binding; settings: agonist radioligand, read-out: % Inh (% inhibition of control specific binding)
# T29 construct: purchased Eurofins Cerep (SafetyScreen44)
# T29 sequence (P37288 whole entry): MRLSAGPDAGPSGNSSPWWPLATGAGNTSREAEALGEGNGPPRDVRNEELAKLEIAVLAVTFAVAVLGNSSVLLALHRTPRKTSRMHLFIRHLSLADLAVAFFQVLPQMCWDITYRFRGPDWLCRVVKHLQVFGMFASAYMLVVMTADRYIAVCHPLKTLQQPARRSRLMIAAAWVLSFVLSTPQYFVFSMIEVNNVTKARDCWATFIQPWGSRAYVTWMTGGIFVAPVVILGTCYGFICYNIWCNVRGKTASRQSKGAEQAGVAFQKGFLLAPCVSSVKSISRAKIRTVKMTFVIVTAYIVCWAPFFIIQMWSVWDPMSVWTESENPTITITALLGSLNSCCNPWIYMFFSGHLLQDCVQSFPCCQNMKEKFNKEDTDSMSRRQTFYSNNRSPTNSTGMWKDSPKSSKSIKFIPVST
# Protocol: as §1, §2
# [14] = biological target: T30, alpha-1A adrenergic receptor (Homo sapiens, UniProt P35348); assay: SafetyScreen44 radioligand binding; settings: read-out: % Inh (% inhibition of control specific binding)
# T30 construct: purchased Eurofins Cerep (SafetyScreen44)
# T30 sequence (P35348 whole entry): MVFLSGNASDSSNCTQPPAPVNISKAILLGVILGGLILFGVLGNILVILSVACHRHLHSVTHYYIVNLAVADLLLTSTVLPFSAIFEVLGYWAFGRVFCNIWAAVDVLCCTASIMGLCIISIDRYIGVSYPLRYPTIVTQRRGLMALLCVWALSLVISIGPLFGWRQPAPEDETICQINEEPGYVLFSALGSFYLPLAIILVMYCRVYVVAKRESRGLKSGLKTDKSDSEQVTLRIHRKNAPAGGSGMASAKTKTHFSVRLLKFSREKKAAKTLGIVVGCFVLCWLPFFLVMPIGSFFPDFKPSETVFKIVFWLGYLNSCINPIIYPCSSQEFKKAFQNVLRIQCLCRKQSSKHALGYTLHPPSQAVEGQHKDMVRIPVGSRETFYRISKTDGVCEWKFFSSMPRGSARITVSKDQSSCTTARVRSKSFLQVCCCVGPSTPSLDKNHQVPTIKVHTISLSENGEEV
# Protocol: as §1, §2
# glucocorticoid receptor = biological target: T31, glucocorticoid receptor (Homo sapiens, UniProt P04150); assay: SafetyScreen44 radioligand binding; settings: agonist radioligand, read-out: % Inh (% inhibition of control specific binding)
# T31 construct: purchased Eurofins Cerep (SafetyScreen44)
# Protocol: as §1, §2
# [15] = biological target: T32, alpha 4/beta 2 nicotinic acetylcholine receptor, (neuronal) (Homo sapiens, UniProt P17787+P43681); assay: SafetyScreen44 radioligand binding; settings: agonist radioligand, read-out: % Inh (% inhibition of control specific binding)
# T32 construct: purchased Eurofins Cerep (SafetyScreen44)
# Protocol: as §1, §2
compound,measurement,setting,value
"Cc1ncc(C)n2nc(-c3ccn4cc(-c5ccccc5)nc4n3)nc12 [CPL500036, 7-[5,8-Dimethyl-(1,2,4)triazolo (1,5-a)pyrazin-2-yl]-2-phenylimidazo (1,2-a) pyrimidine]",pKa,pKa (Figure 1),2.41
same,inhibition at 1 µM,[1],-19.6%
same,inhibition at 1 µM,[2],0.7%
same,inhibition at 1 µM,dopamine receptor type 2,-14.4%
same,inhibition at 1 µM,Endothelin receptor,-16.8%
same,inhibition at 1 µM,adenosine A2A receptor,-8.1%
same,inhibition at 1 µM,Monoamine oxidase A,1%
same,inhibition at 1 µM,[3],0.4%
same,inhibition at 1 µM,androgen receptor,5.3%
same,inhibition at 1 µM,dopamine transporter,-6.9%
same,inhibition at 1 µM,serotonin receptor 1A,5.4%
same,inhibition at 1 µM,serotonin receptor 2A,-8.6%
same,inhibition at 1 µM,5-HT transporter,-9.5%
same,inhibition at 1 µM,[4],-14.6%
same,inhibition at 1 µM,serotonin receptor 1B,-7.3%
same,inhibition at 1 µM,serotonin receptor 2B,10.6%
same,inhibition at 1 µM,[5],-14.6%
same,inhibition at 1 µM,[6],8.8%
same,inhibition at 1 µM,[7],-19.7%
same,inhibition at 1 µM,κ-type opioid receptor,7.7%
same,inhibition at 1 µM,dopamine receptor type 1,-8.2%
same,inhibition at 1 µM,[8],1.8%
same,inhibition at 1 µM,[9],1.1%
same,inhibition at 1 µM,µ -type opioid receptor,-1.1%
same,inhibition at 1 µM,[10],8.2%
same,inhibition at 1 µM,serotonin receptor 3,-5.7%
same,inhibition at 1 µM,[11],-8.2%
same,inhibition at 1 µM,[12],6.9%
same,inhibition at 1 µM,[13],-14.5%
same,inhibition at 1 µM,vasopressin receptor,-0.8%
same,inhibition at 1 µM,[14],1.8%
same,inhibition at 1 µM,glucocorticoid receptor,-3.2%
same,inhibition at 1 µM,[15],-6.1%
